In ChEMBL document CHEMBL1944551, “An integrated computational workflow for efficient and quantitative modeling of renin inhibitors” (Bioorg Med Chem, 2012):

Test: physchem
Settings: octanol/buffer
With COCCCc1cc(CN(C(=O)[C@H]2CNCC(=O)N2c2cnc(OCCCOCc3ccccc3OC)nc2)C2CC2)c(Cl)cn1 the logP was 2.43. Work on COCCCc1cc(CN(C(=O)[C@H]2CNCC(=O)N2c2ccc(CCCOc3cccc(Cl)c3)cc2)C2CC2)c(Cl)cn1 yielded a logP of 5.29. COCCCc1cc(CN(C(=O)[C@H]2CNCC(=O)N2c2ccc(CCCOc3c(F)ccc(F)c3F)cc2)C2CC2)c(Cl)cn1 gave a logP of 5.11. In the case of COCCCc1cc(CN(C(=O)[C@H]2CNCC(=O)N2c2ccc(OCCOc3c(Cl)cc(C)cc3Cl)cc2)C2CC2)c(Cl)c[n+]1[O-], the logP was 5.43. In the case of COCCCc1cc(CN(C(=O)[C@H]2CNCC(=O)N2c2ccc(OCCOc3c(Cl)cc(C)cc3Cl)nc2)C2CC2)c(Cl)c[n+]1[O-], the logP was 4.61. In the case of COCCCc1cc(CN(C(=O)[C@H]2CNCC(=O)N2c2ccc(COC(=O)c3ccccc3)cc2)C2CC2)c(Cl)c[n+]1[O-], the logP was 4.33. COCCCc1cc(CN(C(=O)[C@H]2CNCC(=O)N2c2ccc(OCCCOCc3ccccc3)cc2)C2CC2)c(Cl)c[n+]1[O-] showed a logP of 4.71. Compound COCCCc1cc(CN(C(=O)[C@H]2CNCC(=O)N2c2ccc(OCCCOCc3ccccc3OC)cc2)C2CC2)c(Cl)c[n+]1[O-] has a logP of 4.66. Compound COCCCc1cc(CN(C(=O)[C@H]2CNCC(=O)N2c2cnc(OCCCOCc3ccccc3OC)nc2)C2CC2)c(Cl)c[n+]1[O-] has a logP of 2.65. COCCCc1cc(CN(C(=O)[C@H]2CNCC(=O)N2c2ccc(CCCOc3cccc(Cl)c3)cc2)C2CC2)c(Cl)c[n+]1[O-] gave a logP of 5.51. For COCCCc1cc(CN(C(=O)[C@H]2CNCC(=O)N2c2ccc(CCCOc3c(F)ccc(F)c3F)cc2)C2CC2)c(Cl)c[n+]1[O-], the logP was 5.33. CNCCc1ccc(Cl)c(CN(C(=O)[C@H]2CNCC(=O)N2c2ccc(OCCOc3c(Cl)cc(C)cc3Cl)cc2)C2CC2)c1 gave a logP of 5.74. With CNCCc1ccc(Cl)c(CN(C(=O)[C@H]2CNCC(=O)N2c2ccc(OCCOc3c(Cl)cc(C)cc3Cl)nc2)C2CC2)c1 the logP was 4.91. Compound COC(=O)NCCc1ccc(Cl)c(CN(C(=O)[C@H]2CNCC(=O)N2c2ccc(OCCCOCc3ccccc3OC)cc2)C2CC2)c1 has a logP of 4.9. Compound COC(=O)NCCc1ccc(Cl)c(CN(C(=O)[C@H]2CNCC(=O)N2c2cnc(OCCCOCc3ccccc3OC)nc2)C2CC2)c1 has a logP of 2.88. Work on COC(=O)NCCc1ccc(Cl)c(CN(C(=O)[C@H]2CNCC(=O)N2c2ccc(CCCOc3cccc(Cl)c3)cc2)C2CC2)c1 yielded a logP of 5.74. With COC(=O)NCCc1ccc(Cl)c(CN(C(=O)[C@H]2CNCC(=O)N2c2ccc(CCCOc3c(F)ccc(F)c3F)cc2)C2CC2)c1 the logP was 5.56. With CNC(=O)OCCc1ccc(Cl)c(CN(C(=O)[C@H]2CNCC(=O)N2c2ccc(OCCOc3c(Cl)cc(C)cc3Cl)cc2)C2CC2)c1 the logP was 5.67. For CNC(=O)OCCc1ccc(Cl)c(CN(C(=O)[C@H]2CNCC(=O)N2c2ccc(OCCOc3c(Cl)cc(C)cc3Cl)nc2)C2CC2)c1, the logP was 4.84. Compound CNC(=O)OCCc1ccc(Cl)c(CN(C(=O)[C@H]2CNCC(=O)N2c2ccc(COC(=O)c3ccccc3)cc2)C2CC2)c1 has a logP of 4.57. With CNC(=O)OCCc1ccc(Cl)c(CN(C(=O)[C@H]2CNCC(=O)N2c2ccc(OCCCOCc3ccccc3)cc2)C2CC2)c1 the logP was 4.94. In the case of CNC(=O)OCCc1ccc(Cl)c(CN(C(=O)[C@H]2CNCC(=O)N2c2ccc(OCCCOCc3ccccc3OC)cc2)C2CC2)c1, the logP was 4.9. Compound CNC(=O)OCCc1ccc(Cl)c(CN(C(=O)[C@H]2CNCC(=O)N2c2cnc(OCCCOCc3ccccc3OC)nc2)C2CC2)c1 has a logP of 2.88. Compound CNC(=O)OCCc1ccc(Cl)c(CN(C(=O)[C@H]2CNCC(=O)N2c2ccc(CCCOc3cccc(Cl)c3)cc2)C2CC2)c1 has a logP of 5.74. In the case of CNC(=O)OCCc1ccc(Cl)c(CN(C(=O)[C@H]2CNCC(=O)N2c2ccc(CCCOc3c(F)ccc(F)c3F)cc2)C2CC2)c1, the logP was 5.56. COC(=O)NCc1ccc(Cl)c(CN(C(=O)[C@H]2CNCC(=O)N2c2ccc(OCCOc3c(Cl)cc(C)cc3Cl)cc2)C2CC2)c1 gave a logP of 5.58. Work on COC(=O)NCc1ccc(Cl)c(CN(C(=O)[C@H]2CNCC(=O)N2c2ccc(OCCOc3c(Cl)cc(C)cc3Cl)nc2)C2CC2)c1 yielded a logP of 4.75. With CNCCc1ccc(Cl)c(CN(C(=O)[C@H]2CNCC(=O)N2c2ccc(COC(=O)c3ccccc3)cc2)C2CC2)c1 the logP was 4.64. Work on CNCCc1ccc(Cl)c(CN(C(=O)[C@H]2CNCC(=O)N2c2ccc(OCCCOCc3ccccc3)cc2)C2CC2)c1 yielded a logP of 5.01. CNCCc1ccc(Cl)c(CN(C(=O)[C@H]2CNCC(=O)N2c2ccc(OCCCOCc3ccccc3OC)cc2)C2CC2)c1 gave a logP of 4.97. Compound CNCCc1ccc(Cl)c(CN(C(=O)[C@H]2CNCC(=O)N2c2cnc(OCCCOCc3ccccc3OC)nc2)C2CC2)c1 has a logP of 2.95. With CNCCc1ccc(Cl)c(CN(C(=O)[C@H]2CNCC(=O)N2c2ccc(CCCOc3cccc(Cl)c3)cc2)C2CC2)c1 the logP was 5.81. In the case of CNCCc1ccc(Cl)c(CN(C(=O)[C@H]2CNCC(=O)N2c2ccc(CCCOc3c(F)ccc(F)c3F)cc2)C2CC2)c1, the logP was 5.63. With COC(=O)NCc1ccc(Cl)c(CN(C(=O)[C@H]2CNCC(=O)N2c2ccc(COC(=O)c3ccccc3)cc2)C2CC2)c1 the logP was 4.48. Compound COC(=O)NCc1ccc(Cl)c(CN(C(=O)[C@H]2CNCC(=O)N2c2ccc(OCCCOCc3ccccc3)cc2)C2CC2)c1 has a logP of 4.85. With COC(=O)NCc1ccc(Cl)c(CN(C(=O)[C@H]2CNCC(=O)N2c2ccc(OCCCOCc3ccccc3OC)cc2)C2CC2)c1 the logP was 4.81. In the case of COC(=O)NCc1ccc(Cl)c(CN(C(=O)[C@H]2CNCC(=O)N2c2cnc(OCCCOCc3ccccc3OC)nc2)C2CC2)c1, the logP was 2.8. Compound COC(=O)NCc1ccc(Cl)c(CN(C(=O)[C@H]2CNCC(=O)N2c2ccc(CCCOc3cccc(Cl)c3)cc2)C2CC2)c1 has a logP of 5.65. With COC(=O)NCc1ccc(Cl)c(CN(C(=O)[C@H]2CNCC(=O)N2c2ccc(CCCOc3c(F)ccc(F)c3F)cc2)C2CC2)c1 the logP was 5.48. With COCCCc1ccc(Cl)c(CN(C(=O)[C@H]2CNCC(=O)N2c2ccc(OCCOc3c(Cl)cc(C)cc3Cl)cc2)C2CC2)c1 the logP was 6.49. COCCCc1ccc(Cl)c(CN(C(=O)[C@H]2CNCC(=O)N2c2ccc(OCCOc3c(Cl)cc(C)cc3Cl)nc2)C2CC2)c1 showed a logP of 5.66. With COCCCc1ccc(Cl)c(CN(C(=O)[C@H]2CNCC(=O)N2c2ccc(COC(=O)c3ccccc3)cc2)C2CC2)c1 the logP was 5.39. With COCCCc1ccc(Cl)c(CN(C(=O)[C@H]2CNCC(=O)N2c2ccc(OCCCOCc3ccccc3)cc2)C2CC2)c1 the logP was 5.76. With COCCCc1ccc(Cl)c(CN(C(=O)[C@H]2CNCC(=O)N2c2ccc(OCCCOCc3ccccc3OC)cc2)C2CC2)c1 the logP was 5.72. For COCCCc1ccc(Cl)c(CN(C(=O)[C@H]2CNCC(=O)N2c2cnc(OCCCOCc3ccccc3OC)nc2)C2CC2)c1, the logP was 3.7. Work on COCCCc1ccc(Cl)c(CN(C(=O)[C@H]2CNCC(=O)N2c2ccc(CCCOc3cccc(Cl)c3)cc2)C2CC2)c1 yielded a logP of 6.56. Work on COCCCc1ccc(Cl)c(CN(C(=O)[C@H]2CNCC(=O)N2c2ccc(CCCOc3c(F)ccc(F)c3F)cc2)C2CC2)c1 yielded a logP of 6.39. In the case of Cc1cc(Cl)c(OCCOc2ccc(N3C(=O)CNC[C@@H]3C(=O)N(Cc3cc(CNC(=O)CC(F)(F)F)ccc3Cl)C3CC3)cc2)c(Cl)c1, the logP was 6.02. For Cc1cc(Cl)c(OCCOc2ccc(N3C(=O)CNC[C@@H]3C(=O)N(Cc3cc(CNC(=O)CC(F)(F)F)ccc3Cl)C3CC3)cn2)c(Cl)c1, the logP was 5.19. O=C(CC(F)(F)F)NCc1ccc(Cl)c(CN(C(=O)[C@H]2CNCC(=O)N2c2ccc(COC(=O)c3ccccc3)cc2)C2CC2)c1 gave a logP of 4.92. O=C(CC(F)(F)F)NCc1ccc(Cl)c(CN(C(=O)[C@H]2CNCC(=O)N2c2ccc(OCCCOCc3ccccc3)cc2)C2CC2)c1 showed a logP of 5.29. In the case of Cc1cc(Cl)c(OCCOc2ccc(N3C(=O)CNC[C@@H]3C(=O)N(Cc3cc(CCNC4CC4)ccc3Cl)C3CC3)cc2)c(Cl)c1, the logP was 6.39. Compound Cc1cc(Cl)c(OCCOc2ccc(N3C(=O)CNC[C@@H]3C(=O)N(Cc3cc(CCNC4CC4)ccc3Cl)C3CC3)cn2)c(Cl)c1 has a logP of 5.56. With O=C(OCc1ccc(N2C(=O)CNC[C@@H]2C(=O)N(Cc2cc(CCNC3CC3)ccc2Cl)C2CC2)cc1)c1ccccc1 the logP was 5.29. In the case of O=C([C@H]1CNCC(=O)N1c1ccc(OCCCOCc2ccccc2)cc1)N(Cc1cc(CCNC2CC2)ccc1Cl)C1CC1, the logP was 5.66. For COc1ccccc1COCCCOc1ccc(N2C(=O)CNC[C@@H]2C(=O)N(Cc2cc(CCNC3CC3)ccc2Cl)C2CC2)cc1, the logP was 5.62. With COc1ccccc1COCCCOc1ncc(N2C(=O)CNC[C@@H]2C(=O)N(Cc2cc(CCNC3CC3)ccc2Cl)C2CC2)cn1 the logP was 3.61. Compound O=C([C@H]1CNCC(=O)N1c1ccc(CCCOc2cccc(Cl)c2)cc1)N(Cc1cc(CCNC2CC2)ccc1Cl)C1CC1 has a logP of 6.46. For O=C([C@H]1CNCC(=O)N1c1ccc(CCCOc2c(F)ccc(F)c2F)cc1)N(Cc1cc(CCNC2CC2)ccc1Cl)C1CC1, the logP was 6.29. With COc1ccccc1COCCCOc1ccc(N2C(=O)CNC[C@@H]2C(=O)N(Cc2cc(CNC(=O)CC(F)(F)F)ccc2Cl)C2CC2)cc1 the logP was 5.25. For COc1ccccc1COCCCOc1ncc(N2C(=O)CNC[C@@H]2C(=O)N(Cc2cc(CNC(=O)CC(F)(F)F)ccc2Cl)C2CC2)cn1, the logP was 3.23. In the case of O=C(CC(F)(F)F)NCc1ccc(Cl)c(CN(C(=O)[C@H]2CNCC(=O)N2c2ccc(CCCOc3cccc(Cl)c3)cc2)C2CC2)c1, the logP was 6.09. With O=C(CC(F)(F)F)NCc1ccc(Cl)c(CN(C(=O)[C@H]2CNCC(=O)N2c2ccc(CCCOc3c(F)ccc(F)c3F)cc2)C2CC2)c1 the logP was 5.91. COCCCc1cc(CN(C(=O)[C@H]2CNCC(=O)N2c2ccc(OCCOc3c(Cl)cc(C)cc3Cl)cc2)C2CC2)c(Cl)cn1 showed a logP of 5.22. COCCCc1cc(CN(C(=O)[C@H]2CNCC(=O)N2c2ccc(OCCOc3c(Cl)cc(C)cc3Cl)nc2)C2CC2)c(Cl)cn1 showed a logP of 4.39. For COCCCc1cc(CN(C(=O)[C@H]2CNCC(=O)N2c2ccc(COC(=O)c3ccccc3)cc2)C2CC2)c(Cl)cn1, the logP was 4.11. In the case of COCCCc1cc(CN(C(=O)[C@H]2CNCC(=O)N2c2ccc(OCCCOCc3ccccc3)cc2)C2CC2)c(Cl)cn1, the logP was 4.49. Work on COCCCc1cc(CN(C(=O)[C@H]2CNCC(=O)N2c2ccc(OCCCOCc3ccccc3OC)cc2)C2CC2)c(Cl)cn1 yielded a logP of 4.44. Cc1cc(Cl)c(OCCOc2ccc(N3C(=O)CNC[C@@H]3C(=O)N(Cc3cc(CNC4CC4)ccc3Cl)C3CC3)cc2)c(Cl)c1 showed a logP of 6.3. With Cc1cc(Cl)c(OCCOc2ccc(N3C(=O)CNC[C@@H]3C(=O)N(Cc3cc(CNC4CC4)ccc3Cl)C3CC3)cn2)c(Cl)c1 the logP was 5.48. With O=C(OCc1ccc(N2C(=O)CNC[C@@H]2C(=O)N(Cc2cc(CNC3CC3)ccc2Cl)C2CC2)cc1)c1ccccc1 the logP was 5.2.
